Measured values as given in US9840501B2, “Morpholin-pyridine derivatives” (Hoffmann-La Roche Inc., priority 2014, dated 2017).

Experiments:
[1] = target: rat TAAR1 (Rattus norvegicus (Rat), UniProt Q923Y9); test: Radioligand binding assay on rat TAAR1; conditions: rat TAAR1, membranes of stably transfected HEK-293 cells; second value of the pair; read-out: Ki (μM) mouse/rat: rat
Description: (§1) For the construction of expression plasmids the coding sequences of human, rat and mouse TAAR 1 were amplified from genomic DNA essentially as described by Lindemann et al.. The Expand High Fidelity PCR System (Roche Diagnostics) was used with 1.5 mM Mg^2+ and purified PCR products were cloned into pCR2.1-TOPO cloning vector (Invitrogen) following the instructions of the manufacturer. PCR products were subcloned into the pIRESneo2 vector (BD Clontech, Palo Alto, Calif.), and expression vectors were sequence verified before introduction in cell lines.
(§2) For the generation of stably transfected cell lines HEK293 cells were transfected with the pIRESneo2 expression plasmids containing the TAAR coding sequences (described above) with Lipofectamine 2000 (Invitrogen) according to the instructions of the manufacturer, and 24 hrs post transfection the culture medium was supplemented with 1 mg/ml G418 (Sigma, Buchs, Switzerland). After a culture period of about 10 d clones were isolated, expanded and tested for responsiveness to trace amines (all compounds purchased from Sigma) with the cAMP Biotrak Enzyme immunoassay (EIA) System (Amersham) following the non-acetylation EIA procedure provided by the manufacturer.
Radioligand Binding Assay on Rat TAAR1
(§3) Membrane Preparation and Radioligand Binding.
(§4) Cells were released from culture flasks using trypsin/EDTA, harvested, washed twice with ice-cold PBS (without Ca^2+ and Mg^2+), pelleted at 1′000 rpm for 5 min at 4° C., frozen and stored at −80° C. Frozen pellets were suspended in 20 ml HEPES-NaOH (20 mM, pH 7.4) containing 10 mM EDTA and homogenized with a Polytron (PT 6000, Kinematica) at 14′000 rpm for 20 s. The homogenate was centrifuged at 48′000×g for 30 min at 4° C. Subsequently, the supernatant was removed and discarded, and the pellet resuspended in 20 ml HEPES-NaOH (20 mM, pH 7.4) containing 0.1 mM EDTA using the Polytron (20 s at 14′000 rpm). This procedure was repeated and the final pellet resuspended in HEPES-NaOH containing 0.1 mM EDTA and homogenized using the Polytron. Typically, aliquots of 2 ml membrane portions were stored at −80° C. With each new membrane batch the dissociation constant (Kd) was determined via a saturation curve. […] Nonspecific binding was defined as the amount of ^3[H]—(S)-4-[(ethyl-phenyl-amino)-methyl]-4,5-dihydro-oxazol-2-ylamine bound in the presence of 10 μM unlabeled ligand. All compounds were tested at a broad range of concentrations (10 pM to 10 μM) in duplicates. […] The 96 deep well plates were incubated for 1 hr at 4° C. Incubations were terminated by rapid filtration through Unifilter-96 plates (Packard Instrument Company) and glass filters GF/C (Perkin Elmer) presoaked for 1 hr in polyethylenimine (0.3%) and washed 3 times with 1 ml of cold binding buffer. After addition of 45 μl of Microscint 40 (PerkinElmer) the Unifilter-96 plate was sealed and after 1 hr the radioactivity counted using a TopCount Microplate Scintillation Counter (Packard Instrument Company).

[2] = target: mouse TAAR1 (Mus musculus (Mouse), UniProt Q923Y8); test: Radioligand binding assay on mouse TAAR1; conditions: mouse TAAR1, membranes of stably transfected HEK-293 cells; first value of the pair; read-out: Ki (μM) mouse/rat: mouse
Sequence of mouse TAAR1 (Q923Y8 whole entry): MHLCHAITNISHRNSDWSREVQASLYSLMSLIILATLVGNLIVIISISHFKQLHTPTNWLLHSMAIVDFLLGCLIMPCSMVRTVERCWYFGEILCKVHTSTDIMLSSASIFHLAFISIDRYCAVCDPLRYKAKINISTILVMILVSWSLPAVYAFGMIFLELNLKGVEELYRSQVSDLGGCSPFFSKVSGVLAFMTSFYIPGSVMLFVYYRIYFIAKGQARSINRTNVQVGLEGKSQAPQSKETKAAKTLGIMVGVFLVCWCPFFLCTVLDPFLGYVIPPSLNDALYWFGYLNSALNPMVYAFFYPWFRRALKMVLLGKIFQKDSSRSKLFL
Description: as §1, §2
Radioligand Binding Assay on Mouse TAAR1
as §3
as §4, with “1,000” for “1′000”, “48,000×g” for “48′000×g”

Sequence of rat TAAR1 (Q923Y9 whole entry): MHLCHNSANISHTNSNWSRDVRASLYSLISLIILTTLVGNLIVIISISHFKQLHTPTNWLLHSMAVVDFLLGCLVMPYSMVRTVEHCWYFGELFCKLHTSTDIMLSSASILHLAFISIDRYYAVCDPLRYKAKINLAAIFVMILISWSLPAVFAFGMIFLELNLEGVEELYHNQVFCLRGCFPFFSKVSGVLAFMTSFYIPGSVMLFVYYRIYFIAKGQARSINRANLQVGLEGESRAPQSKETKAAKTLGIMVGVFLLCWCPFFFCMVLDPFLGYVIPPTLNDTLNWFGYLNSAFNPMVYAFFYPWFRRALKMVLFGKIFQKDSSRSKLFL

CCc1n[nH]c(C(=O)Nc2ccc([C@H]3CNCCO3)nc2)c1Cl [Example 82, 4-Chloro-3-ethyl-N-[6-[(2R)-morpholin-2-yl]-3-pyridyl]-1H-pyrazole-5-carboxamide]
Ki [1]: 0.0925 µM | Ki [2]: 0.0039 µM

CC(C)c1n[nH]c(C(=O)Nc2ccc([C@H]3CNCCO3)nc2)c1F [Example 116, 4-Fluoro-3-isopropyl-N-[6-[(2R)-morpholin-2-yl]-3-pyridyl]-1H-pyrazole-5-carboxamide]
Ki [1]: 0.12 µM | Ki [2]: 0.015 µM

O=C(Nc1ccc(C2CNCCO2)nc1)c1ccc(F)cc1 (racemic) [Example 14, (RS)-4-Fluoro-N-(6-morpholin-2-yl-3-pyridyl)benzamide]
Ki [1]: 0.917 µM | Ki [2]: 0.0084 µM

O=C(Nc1ccc([C@H]2CNCCO2)nc1)c1ccnc(C(F)(F)F)c1 [Example 54, N-[6-[(2R)-Morpholin-2-yl]-3-pyridyl]-2-(trifluoromethyl)pyridine-4-carboxamide]
Ki [1]: 0.283 µM

CCCc1c(Cl)c(C(=O)Nc2ccc([C@@H]3CNCCO3)nc2)nn1C [Example 46, 4-Chloro-1-methyl-N-[6-[(2S)-morpholin-2-yl]-3-pyridyl]-5-propyl-pyrazole-3-carboxamide]
Ki [1]: 0.651 µM | Ki [2]: 0.0188 µM

CC(C)n1nc(OCC(F)(F)F)cc1C(=O)Nc1ccc([C@H]2CNCCO2)nc1 [Example 99, 2-Isopropyl-N-[6-[(2R)-morpholin-2-yl]-3-pyridyl]-5-(2,2,2-trifluoroethoxy)pyrazole-3-carboxamide]
Ki [1]: 0.0041 µM | Ki [2]: 0.0242 µM

CCc1n[nH]c(C(=O)Nc2ccc([C@@H]3CNCCO3)nc2)c1F [Example 77, 3-Ethyl-4-fluoro-N-[6-[(2S)-morpholin-2-yl]-3-pyridyl]-1H-pyrazole-5-carboxamide]
Ki [1]: 0.302 µM | Ki [2]: 0.0121 µM

O=C(Nc1ccc(C2CNCCO2)nc1)c1ccc(Cl)cc1 (racemic) [Example 7, (RS)-4-Chloro-N-(6-morpholin-2-yl-3-pyridyl)benzamide]
Ki [1]: 0.0745 µM | Ki [2]: 0.0038 µM

CCCCc1n[nH]c(C(=O)Nc2ccc([C@H]3CNCCO3)nc2)c1F [Example 96, 3-Butyl-4-fluoro-N-[6-[(2R)-morpholin-2-yl]-3-pyridyl]-1H-pyrazole-5-carboxamide]
Ki [1]: 0.0554 µM | Ki [2]: 0.0035 µM

O=C(Nc1ccc([C@H]2CNCCO2)nc1)c1[nH]nc(C(F)(F)F)c1Cl [Example 63, 4-Chloro-N-[6-[(2R)-morpholin-2-yl]-3-pyridyl]-3-(trifluoromethyl)-1H-pyrazole-5-carboxamide]
Ki [1]: 0.0613 µM | Ki [2]: 0.0495 µM

CCCCc1cc(C(=O)Nc2ccc([C@H]3CNCCO3)nc2)[nH]n1 [Example 97, 3-Butyl-N-[6-[(2R)-morpholin-2-yl]-3-pyridyl]-1H-pyrazole-5-carboxamide]
Ki [1]: 0.0387 µM | Ki [2]: 0.0043 µM

FC(F)(F)c1ccnc(Nc2ccc([C@@H]3CNCCO3)nc2)c1 [Example 23, 6-[(2S)-Morpholin-2-yl]-N-[4-(trifluoromethyl)-2-pyridyl]pyridin-3-amine]
Ki [1]: 0.154 µM | Ki [2]: 0.0124 µM

O=C(Nc1ccc([C@@H]2CNCCO2)nc1)c1[nH]nc(C(F)(F)F)c1Cl [Example 43, 4-Chloro-N-[6-[(2S)-morpholin-2-yl]-3-pyridyl]-3-(trifluoromethyl)-1H-pyrazole-5-carboxamide]
Ki [1]: 0.0838 µM | Ki [2]: 0.0474 µM

CCOc1n[nH]c(C(=O)Nc2ccc(C3CNCCO3)nc2)c1Cl (racemic) [Example 74, (RS)-4-Chloro-3-ethoxy-N-(6-morpholin-2-yl-3-pyridyl)-1H-pyrazole-5-carboxamide]
Ki [1]: 0.066 µM

O=C(Nc1ccc([C@H]2CNCCO2)nc1)c1cccc(Cl)c1 [Example 52, 3-Chloro-N-[6-[(2R)-morpholin-2-yl]-3-pyridyl]benzamide]
Ki [1]: 0.0922 µM

FC(F)(F)c1ccc(Nc2cnc(C3CNCCO3)c(Cl)c2)nc1 (racemic) [Example 103, (RS)-5-Chloro-6-morpholin-2-yl-N-[5-(trifluoromethyl)-2-pyridyl]pyridin-3-amine]
Ki [1]: 0.122 µM

O=C(Nc1ccc([C@@H]2CNCCO2)nc1)c1cccc(Cl)c1 [Example 32, 3-Chloro-N-[6-[(2S)-morpholin-2-yl]-3-pyridyl]benzamide]
Ki [1]: 0.0338 µM

O=C(Nc1ccc(C2CNCCO2)nc1)c1ccnc(C(F)(F)F)c1 (racemic) [Example 16, (RS)—N-(6-Morpholin-2-yl-3-pyridyl)-2-(trifluoromethyl)pyridine-4-carboxamide]
Ki [1]: 0.145 µM

O=C(Nc1ccc(C2CNCCO2)nc1)c1[nH]nc(OCC(F)(F)F)c1Cl (racemic) [Example 75, (RS)-4-Chloro-N-(6-morpholin-2-yl-3-pyridyl)-3-(2,2,2-trifluoroethoxy)-1H-pyrazole-5-carboxamide]
Ki [1]: 0.0133 µM

Fc1cc(Nc2ccc(Cl)cn2)cnc1C1CNCCO1 (racemic) [Example 110, (RS)—N-(5-Chloro-2-pyridyl)-5-fluoro-6-morpholin-2-yl-pyridin-3-amine]
Ki [1]: 1.1 µM

CCOc1n[nH]c(C(=O)Nc2ccc([C@@H]3CNCCO3)nc2)c1Cl [Example 106, 4-Chloro-3-ethoxy-N-[6-[(2S)-morpholin-2-yl]-3-pyridyl]-1H-pyrazole-5-carboxamide]
Ki [1]: 0.137 µM

O=C(Nc1ccc([C@@H]2CNCCO2)nc1)c1ccnc(C(F)(F)F)c1 [Example 34, N-[6-[(2S)-Morpholin-2-yl]-3-pyridyl]-2-(trifluoromethyl)pyridine-4-carboxamide]
Ki [1]: 0.147 µM

O=C(Nc1ccc([C@@H]2CNCCO2)nc1)c1[nH]nc(OCC(F)(F)F)c1Cl [Example 105, 4-Chloro-N-[6-[(2S)-morpholin-2-yl]-3-pyridyl]-3-(2,2,2-trifluoroethoxy)-1H-pyrazole-5-carboxamide]
Ki [1]: 0.0176 µM

CCOc1n[nH]c(C(=O)Nc2ccc([C@H]3CNCCO3)nc2)c1Cl [Example 100, 4-Chloro-3-ethoxy-N-[6-[(2R)-morpholin-2-yl]-3-pyridyl]-1H-pyrazole-5-carboxamide]
Ki [1]: 0.123 µM

O=C(Nc1ccc([C@H]2CNCCO2)nc1)c1[nH]nc(OCC(F)(F)F)c1Cl [Example 101, 4-Chloro-N-[6-[(2R)-morpholin-2-yl]-3-pyridyl]-3-(2,2,2-trifluoroethoxy)-1H-pyrazole-5-carboxamide]
Ki [1]: 0.0225 µM

CCCc1n[nH]c(C(=O)Nc2cnc(C3CNCCO3)c(Cl)c2)c1Cl (racemic) [Example 108, (RS)-4-Chloro-N-(5-chloro-6-morpholin-2-yl-3-pyridyl)-3-propyl-1H-pyrazole-5-carboxamide]
Ki [2]: 0.0241 µM

O=C(Nc1ccc(C2CNCCO2)nc1)c1cccc(Cl)c1 (racemic) [Example 12, (RS)-3-Chloro-N-(6-morpholin-2-yl-3-pyridyl)benzamide]
Ki [1]: 0.0889 µM
